Target: L. lactis MG1363 BcaP (CtrA), branched-chain amino acid permease (Lactococcus lactis subsp. cremoris, UniProt A2RHI9)
Test: Competition experiment: inhibition of L-[14C]isoleucine uptake by unlabeled L-amino acids in whole cells overproducing BcaP
Type: cell-based
Conditions: 10-fold excess of unlabeled L-amino acid; 250 µM unlabeled L-isoleucine (control); lactococcal cells overproducing BcaP; uptake after 1 min at 30°C; means of three measurements
Protocol: Amino acid transport assays. L. lactis MG1363 (pNGbcaP; pNZ9530), L. lactis MG1363 or L. lactis MGbcaP, the latter two harboring plasmids pNG8048 and pNZ9530, were grown at 30°C in 50 ml of ½GM17. At an OD600 of approximately 0.4, 1000^-1 volume of supernatant of the nisin-producing strain L. lactis NZ9700 (Kuipers et al, 1993) was added to the cultures to induce BcaP production. At an OD600 of approximately 1.0, cells were harvested by centrifugation at 6300 g and 4°C. Cell pellets were washed with 25 ml of ice-cold CDM, concentrated to an OD600 of 10.0 in CDM lacking amino acids and stored on ice until use. Cells were energized prior to transport assays by 5 min of incubation at 30°C in the presence of 0.5% glucose. Subsequently, 100 µl of cell suspension were mixed with 100 µL of CDM containing 40 µM of the unlabeled amino acid of interest and a final concentration of 1 µM of the same amino acid in a ^14C- or ^35S-labeled form (Amersham Biosciences). For competition experiments, a 10-fold excess of unlabeled amino acid was added. Mixtures were incubated at 30°C for various time intervals while stirring. The reactions were stopped by the addition of 2 ml of ice-cold 0.1 M LiCl, followed by filtration through 0.45 µm pore-size nitrocellulose filters (Schleicher & Schuell, GmbH, Dassel, Germany). Reaction tubes and filters were washed with another 2 mL of ice-cold 0.1 M LiCl. Subsequently, the filters were transferred to vials containing 2 ml of scintillation fluid (Packard BioScience, Groningen, the Netherlands) and radioactivity was determined using a Packard TriCarb 2000 CA liquid scintillation analyzer (Packard Instruments, Meriden, CT).

L. lactis MG1363 BcaP (CtrA), branched-chain amino acid permease, sequence (A2RHI9 whole entry): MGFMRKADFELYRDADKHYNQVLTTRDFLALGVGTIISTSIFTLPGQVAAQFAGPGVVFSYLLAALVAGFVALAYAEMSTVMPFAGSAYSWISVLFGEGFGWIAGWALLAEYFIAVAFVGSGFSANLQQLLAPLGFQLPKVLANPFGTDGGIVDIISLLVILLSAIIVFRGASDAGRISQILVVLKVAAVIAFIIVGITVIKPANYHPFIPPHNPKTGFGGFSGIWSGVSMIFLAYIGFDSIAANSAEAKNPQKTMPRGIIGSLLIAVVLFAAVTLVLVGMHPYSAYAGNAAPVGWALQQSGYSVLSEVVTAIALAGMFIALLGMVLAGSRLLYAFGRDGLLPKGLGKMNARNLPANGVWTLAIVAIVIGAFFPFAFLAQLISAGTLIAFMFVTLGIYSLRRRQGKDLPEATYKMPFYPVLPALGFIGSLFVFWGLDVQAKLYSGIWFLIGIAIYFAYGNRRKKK

Row | Compound | inhibition of isoleucine transport by BcaP (reduction of L-[14C]isoleucine uptake)
1 | CC[C@H](C)[C@H](N)C(=O)O [isoleucine] | about 80%
2 | CC(C)C[C@H](N)C(=O)O [leucine] | about 80%
3 | CSCC[C@H](N)C(=O)O [methionine] | 23%
4 | CC(C)[C@H](N)C(=O)O [valine] | 64%
